From US20050239656A1, “Pyridine compounds or salts thereof and herbicides containing the same” (priority 2002, published 2005)

Assays:
rice (var. Nihonbare) = test: Test Example 3: paddy pot test, transplanted rice; type: in vivo, Oryza sativa L.; conditions: active ingredient 500 g/ha, applied 4th day after transplantation, visually observed 21st day after application, 0 = non-treated, 100 = complete kill
In short: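 Visual crop-injury rating (0 = as untreated, 100 = complete kill, %) taken 21 days post-application. Treatment: formulated compound, water-diluted, pipetted into 3–4 cm flood water at a preset active-ingredient dose, 4 days after transplanting 2-leaf Nihonbare rice 3 cm deep in puddled paddy soil.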

redroot pigweed [1] = test: Test Example 2: soil surface treatment, upland pot test; type: in vivo, Amaranthus retroflexus L.; conditions: observed 20th to 28th day
In short: (§1)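 Visual growth-control ratings, from 0 (like the non-treated plot) to 100 (total kill), were made between days 20 and 28 after a soil-surface spray. The compound, formulated as wettable powder or emulsifiable concentrate and diluted at 1,500 L/ha, went on one day post-sowing in upland-soil pots of 1/170,000 ha.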

prickly sida [2] = test: Test Example 1: foliage treatment, upland pot test; type: in vivo, Sida spinosa L.; conditions: observed 18th to 23rd day, 0 = non-treated, 100 = complete kill
wheat [3] = test: Test Example 1: foliage treatment, upland pot test; type: in vivo, Triticum spp.; conditions: crop, observed 18th to 23rd day, 0 = non-treated, 100 = complete kill
Excerpt: Upland field soil was put into a 1/170,000 ha pot, and seed of various plants were sown. Then, when the plants reached predetermined leaf stages ((1) barnyardgrass: 1.3 to 2.8 leaf stages, (2) crabgrass: 1.0 to 2.8 leaf stages, (3) green foxtail: 1.3 to 2.6 leaf stages, (4) redroot pigweed: 0.1 to 1.2 leaf stages, (5) prickly sida: 0.1 to 1.2 leaf stages, (6) velvetleaf: 0.1 to 1.2 leaf stages, (7) tall morningglory: 0.1 to 1.5 leaf stages, (8) rice: 1.2 to 2.6 leaf stages, (9) wheat: 1.3 to 2.4 leaf stages, (10) corn, 2.1 to 3.2 leaf stages, (11) soybean: 0.1 to 0.4 leaf stage), a wettable powder or emulsifiable concentrate having the compound of the present invention formulated in accordance with a usual formulation method, was weighed so that the active ingredient would be a predetermined amount, and diluted with water in an amount of 500 L/ha. To the diluted solution, 0.1% (v/v) of agricultural spreader was added. The herbicide thus adjusted was applied by a small size sprayer for foliage treatment. On the 18th to 23rd days after the application of the herbicide, the growth of the respective plants was visually observed, and the herbicidal effects were evaluated by the growth controlling degrees (%) ranging from 0 (equivalent to the non-treated plot) to 100 (complete kill), whereby the results shown in Table 3, were obtained.

redroot pigweed [4] = test: Test Example 1: foliage treatment, upland pot test; type: in vivo, Amaranthus retroflexus L.; conditions: observed 18th to 23rd day, 0 = non-treated, 100 = complete kill
green foxtail [5] = test: Test Example 2: soil surface treatment, upland pot test; type: in vivo, Setaria viridis L.; conditions: observed 20th to 28th day
In short: as §1

barnyardgrass [6] = test: Test Example 1: foliage treatment, upland pot test; type: in vivo, Echinochloa crus-galli L.; conditions: observed 18th to 23rd day, 0 = non-treated, 100 = complete kill
In short: (§2)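 Sow in upland field soil; grow to leaf stage (barnyardgrass 1.3–2.8, soybean 0.1–0.4, wheat 1.3–2.4, rice 1.2–2.6); spray foliage with compound in water, 500 L/ha, spreader 0.1% (v/v); assess visually at 18–23 d, 0 (as untreated) to 100 (full kill).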

crabgrass [7] = test: Test Example 1: foliage treatment, upland pot test; type: in vivo, Digitaria sanguinalis L.; conditions: observed 18th to 23rd day, 0 = non-treated, 100 = complete kill
prickly sida [8] = test: Test Example 2: soil surface treatment, upland pot test; type: in vivo, Sida spinosa L.; conditions: observed 20th to 28th day
In short: as §1

barnyardgrass [9] = test: as above; type: in vivo, Echinochloa crus-galli L.; conditions: observed 20th to 28th day
In short: as §1

crabgrass [10] = test: as above; type: in vivo, Digitaria sanguinalis L.; conditions: observed 20th to 28th day
In short: as §1

barnyardgrass [11] = test: Test Example 3: paddy pot test, application under submerged conditions; type: in vivo, Echinochloa crus-galli L.; conditions: active ingredient 500 g/ha; submerged application at 0.5 leaf stage; visually observed 14 days after application; 0 = non-treated, 100 = complete kill
In short: (§3)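 Visual rating of growth control (0% equals untreated, 100% complete kill) made 14 days after treatment. Compound, formulated as wettable powder or emulsifiable concentrate and diluted in water, was pipetted under submerged conditions at predetermined active-ingredient doses once weeds reached 0.5-leaf (barnyardgrass, bulrush) or primary-leaf (wapato, from tubers) stage. Pots of greenhouse paddy soil held 3–4 cm flooding.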

corn [12] = test: Test Example 1: foliage treatment, upland pot test; type: in vivo, Zea mays L.; conditions: crop, observed 18th to 23rd day, 0 = non-treated, 100 = complete kill
In short: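 In this upland pot foliage test, corn plants at 2.1 to 3.2 leaf stages were sprayed by a small size sprayer. The spray was a conventionally formulated wettable powder or emulsifiable concentrate weighed to a set active ingredient amount, diluted in water at 500 L/ha, plus 0.1% (v/v) agricultural spreader. Visual assessment on days 18 to 23 gave growth controlling degree (%), where 0 equals untreated and 100 means complete kill.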

corn [13] = test: Test Example 2: soil surface treatment, upland pot test; type: in vivo, Zea mays L.; conditions: observed 20th to 28th day
In short: as §1

japanese bulrush = test: Test Example 3: paddy pot test, application under submerged conditions; type: in vivo, Scirpus juncoides; conditions: active ingredient 500 g/ha; submerged application at 0.5 leaf stage; visually observed 14 days after application; 0 = non-treated, 100 = complete kill
In short: as §3

velvetleaf [14] = test: Test Example 1: foliage treatment, upland pot test; type: in vivo, Abutilon theophrasti MEDIC.; conditions: observed 18th to 23rd day, 0 = non-treated, 100 = complete kill
green foxtail [15] = test: Test Example 1: foliage treatment, upland pot test; type: in vivo, Setaria viridis L.; conditions: observed 18th to 23rd day, 0 = non-treated, 100 = complete kill
velvetleaf [16] = test: Test Example 2: soil surface treatment, upland pot test; type: in vivo, Abutilon theophrasti MEDIC.; conditions: observed 20th to 28th day
In short: as §1

soybean [17] = test: as above; type: in vivo, Glycine max Merr.; conditions: observed 20th to 28th day
In short: as §1

rice [18] = test: as above; type: in vivo, Oryza sativa L.; conditions: observed 20th to 28th day
In short: as §1

rice [19] = test: Test Example 1: foliage treatment, upland pot test; type: in vivo, Oryza sativa L.; conditions: crop, observed 18th to 23rd day, 0 = non-treated, 100 = complete kill
In short: as §2

soybean [20] = test: Test Example 1: foliage treatment, upland pot test; type: in vivo, Glycine max Merr.; conditions: crop, observed 18th to 23rd day, 0 = non-treated, 100 = complete kill
In short: as §2

japanese ribbon wapato = test: Test Example 3: paddy pot test, application under submerged conditions; type: in vivo, Sagittaria pygniaea; conditions: active ingredient 500 g/ha; submerged application at primary leaf stage; visually observed 14 days after application; 0 = non-treated, 100 = complete kill
In short: as §3

wheat [21] = test: Test Example 2: soil surface treatment, upland pot test; type: in vivo, Triticum spp.; conditions: active ingredient 1000 g/ha, observed 20th to 28th day
In short: as §1

[22] = active ingredient 1000 g/ha, 0 = non-treated, 100 = complete kill

Row | Structure (SMILES) | Growth controlling degree (%) Rice (rice (var. Nihonbare)) [%] | Growth controlling degree (%) Redroot pigweed (redroot pigweed [1]; active ingredient 500 g/ha) [%] | Growth controlling degree (%) Prickly sida (prickly sida [2]; active ingredient 500 g/ha) [%] | Growth controlling degree (%) wheat (wheat [3]; active ingredient 500 g/ha) [%] | Growth controlling degree (%) Redroot pigweed (redroot pigweed [4]; active ingredient 500 g/ha) [%] | Growth controlling degree (%) Green foxtail (green foxtail [5]; active ingredient 500 g/ha) [%] | Growth controlling degree (%) Barnyardgrass (barnyardgrass [6]; active ingredient 500 g/ha) [%] | Growth controlling degree (%) Barnyardgrass (barnyardgrass [11]) [%] | Growth controlling degree (%) Japanese bulrush (japanese bulrush) [%] | Growth controlling degree (%) Japanese ribbon wapato (japanese ribbon wapato) [%] | Growth controlling degree (%) Redroot pigweed (redroot pigweed [1]; active ingredient 1000 g/ha) [%] | Growth controlling degree (%) Green foxtail (green foxtail [5]; active ingredient 1000 g/ha) [%] | Growth controlling degree (%) Prickly sida (prickly sida [8]; active ingredient 1000 g/ha) [%] | Growth controlling degree (%) Barnyardgrass (barnyardgrass [9]; [22]) [%] | Growth controlling degree (%) Crabgrass (crabgrass [10]; active ingredient 1000 g/ha) [%] | Growth controlling degree (%) wheat (wheat [21]) [%] | Growth controlling degree (%) Corn (corn [13]; active ingredient 1000 g/ha) [%] | Growth controlling degree (%) Velvetleaf (velvetleaf [16]; active ingredient 1000 g/ha) [%] | Growth controlling degree (%) Soyabean (soybean [17]; active ingredient 1000 g/ha) [%] | Growth controlling degree (%) Rice (rice [18]; active ingredient 1000 g/ha) [%] | other results
1 | CC(C)C(c1cnccc1C(F)(F)F)N(C)C(=O)C=Cc1ccc(C(F)(F)F)cc1 (stereo not shown) [I-186] | 10 | 40 | 60 | 60 | 50 | 100 | 50 | 98 | 95 |  |  |  |  |  |  |  |  |  |  |  | Growth controlling degree (%) Crabgrass (crabgrass [7]; active ingredient 500 g/ha): 60%; Growth controlling degree (%) Prickly sida (prickly sida [8]; active ingredient 500 g/ha): 10%; Growth controlling degree (%) Barnyardgrass (barnyardgrass [9]; active ingredient 500 g/ha): 40%; Growth controlling degree (%) Crabgrass (crabgrass [10]; active ingredient 500 g/ha): 98%; Growth controlling degree (%) Corn (corn [12]; active ingredient 500 g/ha): 50%; Growth controlling degree (%) Corn (corn [13]; active ingredient 500 g/ha): 30%; Growth controlling degree (%) Velvetleaf (velvetleaf [14]; active ingredient 500 g/ha): 60%; Growth controlling degree (%) Green foxtail (green foxtail [15]; active ingredient 500 g/ha): 40%; Growth controlling degree (%) Velvetleaf (velvetleaf [16]; active ingredient 500 g/ha): 0%; Growth controlling degree (%) Soyabean (soybean [17]; active ingredient 500 g/ha): 0%; Growth controlling degree (%) Rice (rice [18]; active ingredient 500 g/ha): 20%; Growth controlling degree (%) Rice (rice [19]; active ingredient 500 g/ha): 10%; Growth controlling degree (%) Soybean (soybean [20]; active ingredient 500 g/ha): 70%
2 | CON=Cc1ccc(CC(=O)N(C)C(c2cnccc2C(F)(F)F)C(C)C)cc1 (racemic) [I-122] | 10 | 60 | 80 | 0 | 70 | 100 | 80 | 98 | 100 |  |  |  |  |  |  |  |  |  |  |  | Growth controlling degree (%) Crabgrass (crabgrass [7]; active ingredient 500 g/ha): 95%; Growth controlling degree (%) Prickly sida (prickly sida [8]; active ingredient 500 g/ha): 50%; Growth controlling degree (%) Barnyardgrass (barnyardgrass [9]; active ingredient 500 g/ha): 98%; Growth controlling degree (%) Crabgrass (crabgrass [10]; active ingredient 500 g/ha): 100%; Growth controlling degree (%) Corn (corn [12]; active ingredient 500 g/ha): 80%; Growth controlling degree (%) Corn (corn [13]; active ingredient 500 g/ha): 10%; Growth controlling degree (%) Velvetleaf (velvetleaf [14]; active ingredient 500 g/ha): 70%; Growth controlling degree (%) Green foxtail (green foxtail [15]; active ingredient 500 g/ha): 60%; Growth controlling degree (%) Velvetleaf (velvetleaf [16]; active ingredient 500 g/ha): 30%; Growth controlling degree (%) Soyabean (soybean [17]; active ingredient 500 g/ha): 10%; Growth controlling degree (%) Rice (rice [18]; active ingredient 500 g/ha): 20%; Growth controlling degree (%) Rice (rice [19]; active ingredient 500 g/ha): 10%; Growth controlling degree (%) Soybean (soybean [20]; active ingredient 500 g/ha): 80%
3 | CC(C)C(c1cnccc1C(F)(F)F)N(C)C(=O)C=Cc1cccc2ccccc12 (stereo not shown) [I-187] | 0 |  |  |  |  |  |  | 100 | 10 | 20 |  |  |  |  |  |  |  |  |  |  | Growth controlling degree (%) Prickly sida (prickly sida [2]; active ingredient 1000 g/ha): 90%; Growth controlling degree (%) wheat (wheat [3]; active ingredient 1000 g/ha): 10%; Growth controlling degree (%) Redroot pigweed (redroot pigweed [4]; active ingredient 1000 g/ha): 80%; Growth controlling degree (%) Barnyardgrass (barnyardgrass [6]; active ingredient 1000 g/ha): 60%; Growth controlling degree (%) Crabgrass (crabgrass [7]; active ingredient 1000 g/ha): 95%; Growth controlling degree (%) Corn (corn [12]; active ingredient 1000 g/ha): 80%; Growth controlling degree (%) Velvetleaf (velvetleaf [14]; active ingredient 1000 g/ha): 40%; Growth controlling degree (%) Green foxtail (green foxtail [15]; active ingredient 1000 g/ha): 60%; Growth controlling degree (%) Rice (rice [19]; active ingredient 1000 g/ha): 30%; Growth controlling degree (%) Soybean (soybean [20]; active ingredient 1000 g/ha): 60%
4 | COC(=O)NC(c1cnccc1C(F)(F)F)c1cccc2ccccc12 (stereo not shown) [Compound I-45] | 30 |  |  |  |  |  |  | 85 | 90 | 60 | 40 | 60 | 40 | 0 | 90 | 30 | 20 | 40 | 0 | 50 | 
5 | CC(C)C(NC(=O)Cc1c(F)cccc1F)c1cnccc1C(F)(F)F (stereo not shown) [Compound I-5] | 20 |  |  |  |  |  |  | 60 | 90 | 50 | 0 | 70 | 0 | 30 | 90 | 10 | 20 | 0 | 10 | 10 | 
6 | CC(C)C(NC(=O)Cc1ccc(Br)cc1)c1cnccc1C(F)(F)F (stereo not shown) [Compound I-8] | 0 |  |  |  |  |  |  | 90 | 90 | 10 | 80 | 50 | 50 | 50 | 50 | 30 | 10 | 0 | 30 | 10 | 
